A word on the IC50: it is the concentration needed to halve the response being measured. Lower therefore signals inhibition by little substance. One may read the half-life as how long it takes for the measured level to halve.

Read-outs that look alike come from different tables or passages of the source.

One data set has as its target hERG potassium channel (Homo sapiens (Human), UniProt Q12809). Description: hERG potassium channel automated patch clamp in CHO-hERG cells. Here is the method: CHO-hERG cells (purchased from ATCC) were incubated in a culture flask. When the cell density reached 60˜80%, the culture medium (Glutamax DMEM/F12 medium (Gibco, Shanghai) containing 10% fetal bovine serum) was removed. The cells were washed with 7 mL PBS once, and then digested by adding 3 mL Detachin cell dissociation buffer. After complete digestion, the resultant mixture was neutralized by adding 7 mL culture medium, and centrifuged. The supernatant was removed with a pipette, 5 mL culture medium was added to re-suspend the cells to ensure a cell density of 2˜5×10^6/mL.
Intracellular fluid and extracellular fluid were prepared as described in the following table.
A certain amount of compound was dissolved in […] at the following concentrations, to prepare the stock solution of compound. 2 μL stock solution of compound was added to 998 μL extracellular fluid, and was subjected to 5-fold serial dilution in extracellular fluid containing 0.2% DMSO to get the final concentrates to be tested.
Single cell giga-seal and formation of whole-cell mode were automatically performed by Sophion Qpatch HT fully automated cell patch clamp systems. After obtaining the whole-cell recording mode, the cell was clamped at −80 mV. The cell first underwent pre-voltage of −50 mV for 50 msec, then underwent depolarization stimulation at 20 mV for 5 sec, and then underwent repolarization at −50 mV for 5 sec, and then the voltage return to −80 mv. The cell underwent the stimulation at the voltage every 15 sec, and the data were recorded for 2 min, then extracellular fluid was administered, and then the data were recorded for 2 min. Then, the administration process begun. The concentration of a test compound started from the lowest concentration, each test concentration was administered for 2 min. […] At least three cells were tested for each concentration (n≥3). The experimental data was analyzed by XLFit software.
Background: hERG is a cardiac potassium channel; its block is linked to QT prolongation.

Another data set has as its system SNI neuropathic pain. Kind of data set: Neuropathic pain mouse model induced by spared nerve injury (SNI). Conditions: SNI mice; for effect compared to positive control drug gabapentin: 10 mg/kg i.p. vs gabapentin 100 mg/kg, 1 h after administration. Type of data set: in vivo, C57BL/6 mice. Here is the method: In the Experimental example, compounds to be evaluated or compounds to be tested or test compounds used are the Compounds 1-46 prepared in the Examples according to the invention. In the Experimental example, all the agents for injection, including compounds to be evaluated or compounds to be tested or test compounds, and positive control drug, were dissolved in a mixed solvent of PEG400:Tween 80:normal saline (at a volume ratio of 5:5:90), at a concentration of 5 mg/mL.
Neuropathic pain mouse model induced by spared nerve injury (SNI) is a common animal model for studying neuropathic pain medically. The invention uses the model to evaluate the therapeutic effects of the compounds on neuropathic pain, wherein the model can represent peripheral neuropathic pain including, but not limited to post-herpetic neuralgia, pain caused by diabetic perineuropathy, neurothlipsis and exudation caused by tumor, lumbar surgery failure syndrome, neuropathic pain caused by lumbar disc protrusion, postpartum neuralgia, trigeminal neuralgia, chemotherapy-induced multiple neuropathic pain, post-radiotherapy plexopathy, and radicular neuralgia.
C57BL/6 mice (purchased from Shanghai SLAC Laboratory Animal Co., Ltd) were anesthetized by intraperitoneal injection with pentobarbital sodium (40 mg/kg), and skin from knee joint to gluteal region was subjected to skin preparation and disinfection. After the mice were fixed, the knee joint part was cut about 1 cm longitudinally with bistoury, and muscle tissues were separated by blunt dissection to expose sciatic nerve. The tibial and common peroneal nerve branches of sciatic nerve stem were cut off carefully, and the cut was then stitched up. The mice was placed in a clean observation cage. In the sham-operation group, only sciatic nerve was exposed without cutting the tibial and common peroneal nerve branches. From the day before the experiment to 24 h after the operation, the plantar edges of the mice were stimulated everyday by […] (Ugo Basile Company (Italy), Product ID: 37450), and data was collected automatically to obtain the threshold value of mice to mechanical stimulation. […] The positive control drug gabapentin was administered at a dose of 100 mg/kg. All the agents to be injected were dissolved in a mixed solvent of PEG400:Tween 80:normal saline (at a volume ratio of 5:5:90), at a concentration of 5 mg/mL. By comparing the threshold values (the acting force of when the mouse retracting the paw) at different administration time in different administration groups, the compound was evaluated for its analgesic effect on neuropathic pain.

Data set [1] can be described thus: Stability assays at acidic and basic conditions. Type of data set: physicochemical. The method, then:
The sample containing the compound to be tested was then incubated in a constant temperature shaker at 37° C. At different time points (0 min, 10 min, 30 min, 1 h, 2 h, 4 h, 6 h, 12 h, 24 h), 50 μL sample was taken and added to 150 μL precooled methanol (containing the internal standard E8, 1 nmol/sample), wherein three parallel samples were prepared for each time point. The samples were then vertically mixed well, and transferred to a sample vial. LC-MS/MS was used to measure the peak area at different time points, Analyst® version 1.4.1. software was used to analyze chromatographic peak, and the content of the target compound was calculated based on the standard curve.

Data set [2] can be described thus: Stability assay in rat plasma. The data set is classed as in vitro ADME. The conditions noted are these: 37° C. The method, then:
To each of several tubes sub-packaged with rat plasma, PBS solution was added in a volume equal to a quarter of plasma volume, and the resultant mixture was mixed well. […] At different time points (0, 10, 30, 60, 120, 240, 360, 720, 1440 min), 50 μL plasma sample was taken and added to 150 μL precooled methanol (containing the internal standard compound E8, with a structure of
[drawing 117] and a name of 1-(2-Biphenyl-4-yl)ethyl-carbonyl pyrrolidine, 1 nmol/sample), wherein three parallel samples were prepared for each time point. The samples were then vertically mixed well, and centrifuged at 4° C., 12000 g for 10 min. The supernatant was transferred to a sample vial. LC-MS/MS was used to measure the peak area at different time points, Analyst® version 1.4.1. software was used to analyze chromatographic peak, and the content of the target compound was calculated by virtue of the standard curve.

The mark [3] stands for this setting: 10 mg/kg i.p. (gabapentin 100 mg/kg), 4 h after administration.
Where [4] appears, read: 10 mg/kg intraperitoneal, 1 h and 4 h after administration (FIGS. 1 and 2).
The mark [5] stands for this setting: PBS pH 5.0, 37° C., read-out: Half-life pH 5.0.
Where [6] appears, read: PBS pH 7.4, 37° C., read-out: Half-life pH 7.4.

Sequence of hERG potassium channel (Q12809 whole entry): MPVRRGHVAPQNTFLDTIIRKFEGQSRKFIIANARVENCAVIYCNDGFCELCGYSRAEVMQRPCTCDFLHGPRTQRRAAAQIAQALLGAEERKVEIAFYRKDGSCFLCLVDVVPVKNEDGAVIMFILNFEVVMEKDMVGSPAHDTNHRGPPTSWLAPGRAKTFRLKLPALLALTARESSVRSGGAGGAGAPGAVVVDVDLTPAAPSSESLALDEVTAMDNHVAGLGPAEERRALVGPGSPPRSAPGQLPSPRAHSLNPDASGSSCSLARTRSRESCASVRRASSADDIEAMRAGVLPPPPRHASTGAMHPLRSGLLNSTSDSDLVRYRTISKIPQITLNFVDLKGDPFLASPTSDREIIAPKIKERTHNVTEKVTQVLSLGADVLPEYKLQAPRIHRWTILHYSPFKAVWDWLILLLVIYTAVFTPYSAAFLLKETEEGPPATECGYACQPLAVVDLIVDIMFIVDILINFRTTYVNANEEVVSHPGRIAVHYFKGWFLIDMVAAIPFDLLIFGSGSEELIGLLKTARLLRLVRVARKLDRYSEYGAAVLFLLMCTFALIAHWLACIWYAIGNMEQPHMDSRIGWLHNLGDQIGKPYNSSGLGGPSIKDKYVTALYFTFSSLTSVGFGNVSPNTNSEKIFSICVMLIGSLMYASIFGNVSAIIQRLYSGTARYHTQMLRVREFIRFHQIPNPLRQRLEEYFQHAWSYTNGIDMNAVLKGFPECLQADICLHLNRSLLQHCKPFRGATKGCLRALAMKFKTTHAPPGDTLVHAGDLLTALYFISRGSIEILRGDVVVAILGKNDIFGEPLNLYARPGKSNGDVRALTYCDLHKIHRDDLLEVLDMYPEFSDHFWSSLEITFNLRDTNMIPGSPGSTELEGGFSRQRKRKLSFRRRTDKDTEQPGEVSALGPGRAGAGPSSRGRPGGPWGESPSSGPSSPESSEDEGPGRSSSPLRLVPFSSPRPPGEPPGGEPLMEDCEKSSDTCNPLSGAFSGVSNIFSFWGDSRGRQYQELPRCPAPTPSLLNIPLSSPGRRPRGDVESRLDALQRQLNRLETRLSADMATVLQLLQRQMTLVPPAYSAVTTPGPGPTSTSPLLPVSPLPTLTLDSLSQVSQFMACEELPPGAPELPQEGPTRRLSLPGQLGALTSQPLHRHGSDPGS

`O=C(CCCCCc1cccc(Cl)c1)N1CCOC1=O` [Compound 9, 3-Chlorophenylhexanoyl Oxazolidinone] yielded an IC50 against hERG potassium channel of more than 40 µM. The results for the “effect of inhibiting central neuropathic pain” value with SNI neuropathic pain (setting [3]) and with SNI neuropathic pain (setting [4]) were “retained a relatively strong effect of inhibiting central neuropathic pain” and “significant effects of inhibiting central neuropathic pain”, respectively. Further, the “effect compared to positive control drug gabapentin” value in the data set on SNI neuropathic pain is listed as “not as effective as the control drug”. In addition, the half-life at 1 μM in data set [1] (setting [5]) and in data set [1] (setting [6]) was more than 1440 min each time. The molecule also came in with a half-life at 2 μM in data set [2] of 163 min.

At hERG potassium channel, `O=C(CCCCCc1ccccc1)N1CCOC1=O` [Compound 2, Phenylhexanoyl Oxazolidinone] yielded a half-maximal inhibitory concentration (IC50) of more than 40 µM. Moreover, the entries for the “effect of inhibiting central neuropathic pain” value in the data set with SNI neuropathic pain (setting [3]) and in the data set on SNI neuropathic pain (setting [4]) were “retained a relatively strong effect of inhibiting central neuropathic pain” and “significant effects of inhibiting central neuropathic pain”, respectively. Further, the “effect compared to positive control drug gabapentin” value with SNI neuropathic pain was “not as effective as the control drug”. In addition, the analgesic effect result in the data set on SNI neuropathic pain (10 mg/kg i.p., 10 h after administration (FIG. 3)) is recorded as “still had a sustained analgesic effect”. Moreover, the half-life at 1 μM in data set [1] (setting [5]) and in data set [1] (setting [6]) was more than 1440 min throughout. Further, the half-life at 2 μM in data set [2] amounted to 188 min.

Values taken from patent US10174015B2, “Substituted heterocyclic derivative, preparation method and use thereof” (Xiamen University, priority 2014, dated 2019).
